From the NIST ThermoML archive (doi:10.1016/j.tca.2013.09.017)

What was measured:
[1] = 298.15 K, 101.33 kPa, Liquid; for speed of sound: Sing-around technique in a fixed-path interferometer; for mass density: Vibrating tube method
[2] = mn = molality of the nth substance listed, in mol/kg; conditions: 298.15 K, 101 kPa, Liquid; for speed of sound: Sing-around technique in a fixed-path interferometer; for mass density: Vibrating tube method

CN1CCCC1=O [N-methylpyrrolidone]
[1]
Conditions | mass density [kg/m3] | speed of sound [m/s]
– | 1028.01 | 1545.2

CCC(=O)N(C)C [N,N-dimethylpropionamide] + CCO
[2]
Conditions | mass density [kg/m3] | speed of sound [m/s]
m1 = 0.0587 | 785.99 | 1146.6
m1 = 0.1486 | 787.09 | 1148.1
m1 = 0.2471 | 788.4 | 1150.7
m1 = 0.3517 | 789.6 | 1153.2
m1 = 0.4456 | 790.79 | 1155.3

CCC(=O)N(C)C [N,N-dimethylpropionamide] + CCCCCCC
[2]
Conditions | mass density [kg/m3] | speed of sound [m/s]
m1 = 0.0487 | 680.32 | 1132.3
m1 = 0.1515 | 681.98 | 1133.4
m1 = 0.2686 | 683.9 | 1135.1
m1 = 0.3627 | 685.47 | 1136.2
m1 = 0.4628 | 687.09 | 1137.5

CCCCCCC [heptane]
[1]
Conditions | mass density [kg/m3] | speed of sound [m/s]
– | 679.51 | 1131.4

CCCO [propan-1-ol]
[1]
Conditions | mass density [kg/m3] | speed of sound [m/s]
– | 799.58 | 1206.7

CCC(=O)N(C)C [N,N-dimethylpropionamide] + CCCCO
[2]
Conditions | mass density [kg/m3] | speed of sound [m/s]
m1 = 0.0494 | 806.25 | 1241.7
m1 = 0.1311 | 807.08 | 1243.2
m1 = 0.21 | 807.88 | 1244.6
m1 = 0.2899 | 808.68 | 1246.1
m1 = 0.3702 | 809.48 | 1247.5

CN1CCCC1=O [N-methylpyrrolidone] + O
[2]
Conditions | mass density [kg/m3] | speed of sound [m/s]
m1 = 0.0621 | 997.34 | 1500.7
m1 = 0.1225 | 997.63 | 1504.4
m1 = 0.1806 | 997.92 | 1507.8
m1 = 0.2399 | 998.21 | 1511.4
m1 = 0.3036 | 998.54 | 1515.1

CCC(=O)N(C)C [N,N-dimethylpropionamide] + CCCO
[2]
Conditions | mass density [kg/m3] | speed of sound [m/s]
m1 = 0.0515 | 800.16 | 1207.9
m1 = 0.1316 | 801.03 | 1209.6
m1 = 0.2061 | 801.84 | 1211.2
m1 = 0.2845 | 802.68 | 1212.9
m1 = 0.3632 | 803.51 | 1214.5

CO [methanol]
[1]
Conditions | mass density [kg/m3] | speed of sound [m/s]
– | 786.66 | 1103.4

CCC(=O)N(C)C [N,N-dimethylpropionamide]
[1]
Conditions | mass density [kg/m3] | speed of sound [m/s]
– | 921.16 | 1425.4

CCC(=O)N(C)C [N,N-dimethylpropionamide] + O
[2]
Conditions | mass density [kg/m3] | speed of sound [m/s]
m1 = 0.0588 | 996.85 | 1501.1
m1 = 0.1486 | 996.53 | 1508.1
m1 = 0.2471 | 996.2 | 1515.7
m1 = 0.3518 | 995.95 | 1522
m1 = 0.4457 | 995.72 | 1528.2

CCO [ethanol]
[1]
Conditions | mass density [kg/m3] | speed of sound [m/s]
– | 785.22 | 1145.2

CN1CCCC1=O [N-methylpyrrolidone] + CCO
[2]
Conditions | mass density [kg/m3] | speed of sound [m/s]
m1 = 0.077 | 786.74 | 1146.8
m1 = 0.1554 | 788.32 | 1149.3
m1 = 0.2349 | 789.86 | 1151.9
m1 = 0.3089 | 791.28 | 1154
m1 = 0.388 | 792.78 | 1156.5

CCC(=O)N(C)C [N,N-dimethylpropionamide] + C1CCCCC1
[2]
Conditions | mass density [kg/m3] | speed of sound [m/s]
m1 = 0.05 | 773.91 | 1254.7
m1 = 0.1518 | 774.79 | 1254.7
m1 = 0.2497 | 775.68 | 1254.8
m1 = 0.355 | 776.64 | 1254.9
m1 = 0.4496 | 777.52 | 1255

CCC(=O)N(C)C [N,N-dimethylpropionamide] + CO
[2]
Conditions | mass density [kg/m3] | speed of sound [m/s]
m1 = 0.0618 | 787.53 | 1105
m1 = 0.1442 | 788.62 | 1107
m1 = 0.2317 | 789.76 | 1109.6
m1 = 0.3264 | 790.9 | 1112
m1 = 0.4233 | 792.14 | 1114.7

CN1CCCC1=O [N-methylpyrrolidone] + CO
[2]
Conditions | mass density [kg/m3] | speed of sound [m/s]
m1 = 0.0786 | 788.33 | 1106.3
m1 = 0.1588 | 789.97 | 1109
m1 = 0.2275 | 791.35 | 1111.2
m1 = 0.3082 | 792.96 | 1114
m1 = 0.3854 | 794.5 | 1116.6

CN1CCCC1=O [N-methylpyrrolidone] + C1CCCCC1
[2]
Conditions | mass density [kg/m3] | speed of sound [m/s]
m1 = 0.0792 | 774.81 | 1256
m1 = 0.1648 | 776.26 | 1256.8
m1 = 0.2385 | 777.5 | 1257.6
m1 = 0.3142 | 778.77 | 1258.3
m1 = 0.3925 | 780.08 | 1258.7

CN1CCCC1=O [N-methylpyrrolidone] + CCCCO
[2]
Conditions | mass density [kg/m3] | speed of sound [m/s]
m1 = 0.0846 | 807.27 | 1243
m1 = 0.1506 | 808.43 | 1244.6
m1 = 0.23 | 809.82 | 1245.8
m1 = 0.2953 | 810.94 | 1247.7
m1 = 0.3712 | 812.24 | 1249.6

CN1CCCC1=O [N-methylpyrrolidone] + CCCO
[2]
Conditions | mass density [kg/m3] | speed of sound [m/s]
m1 = 0.0757 | 801.03 | 1209.1
m1 = 0.1611 | 802.58 | 1211.6
m1 = 0.2275 | 803.78 | 1213.4
m1 = 0.3064 | 805.2 | 1215.6
m1 = 0.381 | 806.51 | 1217.6

CCCCO [butan-1-ol]
[1]
Conditions | mass density [kg/m3] | speed of sound [m/s]
– | 805.72 | 1240.5

C1CCCCC1 [cyclohexane]
[1]
Conditions | mass density [kg/m3] | speed of sound [m/s]
– | 773.82 | 1255

CN1CCCC1=O [N-methylpyrrolidone] + CCCCCCC
[2]
Conditions | mass density [kg/m3] | speed of sound [m/s]
m1 = 0.0859 | 681.45 | 1133.1
m1 = 0.1879 | 683.75 | 1135
m1 = 0.2695 | 685.56 | 1136.4
m1 = 0.3576 | 687.51 | 1137.7
m1 = 0.4488 | 689.49 | 1139.2
